# Results as given in ChEMBL document CHEMBL1122422, “Resolution of etodolac and antiinflammatory and prostaglandin synthetase inhibiting properties of the enantiomers” (J Med Chem, 1983).
# Species: Ovis aries
# Assay: Effect of compound (400 uM) on biosynthesis of prostaglandins from tritiated arachidonic acid was evaluated in vitro; NE = No effect at the given concentration
# Type: functional
smiles,measurement,value
"CCc1cccc2c3c([nH]c12)C(CC)(CC(=O)O)OCC3 (single isomer, unassigned; (-))",Activity,No effect
